The values below come from patent publication US20190135755A1, “CRYSTAL POLYMORPHISM OF KCNQ2-5 CHANNEL ACTIVATOR” (ONO PHARMACEUTICAL CO., LTD., priority 2016, published 2019).

Molecules are shown by their SMILES. ≈ marks a conversion by molar mass, not a printed value.

The nature of data set [1]: Chemical stability test of crystal form under storage conditions. The format is physicochemical. Particulars: all storage conditions, compared with the sample. The method, then: The stability of the crystal form of the present invention was examined under various storage conditions. After storage, the residual ratio (%) of each of the samples stored under the respective conditions with respect to the area percentage of the sample stored at −20° C. was calculated by HPLC. Further, by using a powder X-ray diffraction spectrum, peaks were compared with those of the sample. The appearance was observed by visual inspection and compared with that of the sample.
<Storage Conditions and Sampling Time>
25° C.-60% RH (opened): 3 months
40° C.-75% RH (opened): 3 months
2500 Lux: 20D (shading, transparent)

A further data set deals with T1, Human KCNQ2/3 (Homo sapiens, UniProt O43525+O43526).
T1 construct: expressed in transfected cells; host or cells: CHO-DHFR- cells
In words: Opening action with respect to KCNQ2/3 channel by depolarization stimulation (thallium influx, FLIPR). Particulars: human KCNQ2/3 expressing CHO-DHFR- cells; concentration giving 50% of maximum reaction of retigabine (10 μM); 5 mM potassium and 0.5 mM thallium; read-out: opening action (ECrtg50 value) with respect to the KCNQ2/3 channel. The format is cell-based. The method, then: Human KCNQ2/3 expression cells (CHO-DHFR-cells) were seeded in each well of a 384-well plate (collagen-coated, black, clear bottom) at 0.5×10^4 cells/50 μL per well and cultured in a MEM ALPHA medium (containing 10 vol % inactivated (56° C., 30 min) fetal bovine serum, 100 IU/mL penicillin, 100 μg/mL streptomycin, and 2 mM L-glutamine) at 37° C. in 5% CO2 for 18 to 24 hours. After the medium in the plate was removed, incubation (room temperature, 60 minutes, shading) was performed in a loading buffer (prepared by the method described in the manual of FluxOR Thallium Detection Kit (Invitrogen, F10016, F10017)). A KCNQ2/3 channel opening action (thallium influx into cells) by depolarization stimulation (5 mM potassium and 0.5 mM thallium) was measured by FLIPR TETRA (Molecular Devices). The compound I was treated 5 minutes before the depolarization stimulation, and the reaction induced by the depolarization stimulation was measured over time for 180 seconds. The channel opening action of the compound I was evaluated based on the change amount of the fluorescence intensity from the time before the depolarization stimulation to the time after the elapse of 180 seconds, and the concentration (ECrtg50) satisfying 50% of the fluorescence intensity change of a maximum reaction (in the treatment at 10 μM) of retigabine under the conditions of this experiment was calculated.

The nature of another data set: Solubility test. The format is physicochemical. Particulars: aqueous buffer, kinetic from dmso stock, Japanese Pharmacopoeia dissolution test second solution (pH 6.8), room temperature, quantification range 5 to 100 μM. The method, then:
A calibration curve solution was prepared at 0.1, 0.4, and 2 μM by diluting a test substance (a 10 mM DMSO solution) with acetonitrile and adding acetonitrile containing an internal standard substance (candesartan).
A sample solution was prepared as follows. 5 μL of the compound I (a 10 mM DMSO solution) was added to 495 μL of the Japanese Pharmacopoeia dissolution test second solution (pH: 6.8), followed by stirring at room temperature for 5 hours. Then, the solution was transferred to a solubility filter plate and subjected to suction filtration. The filtrate (20 μL) was diluted with acetonitrile, followed by adding acetonitrile containing an internal standard substance (candesartan).
Each of the calibration curve and sample solutions (5 μL) was injected into LC-MS/MS (Discovery Max, manufactured by Thermo Scientific, Inc.) and subjected to quantification (quantification range: 5 to 100 μM). The solubility in the case where the value equal to or less than the quantification range was obtained was defined as <5 μM, and the solubility in the case where the value equal to or more than the quantification range was obtained was defined as […].

Data set [2] is described as follows: Water vapor adsorption/desorption isotherm measurement. The format is physicochemical. Particulars: 25° C., relative humidity of 50% RH or more, based on mass when dried (0% RH). The method, then:
(3) Water Vapor Adsorption/Desorption Isotherm Measurement
Device: DVS Intrinsic, manufactured by SMS Co., Ltd.
Change in relative humidity: 0% to 95% (5% STEP)
STEP transition criterion: percent change in weight: 0.002%/min
A change in mass when the humidity was changed in a stepwise manner (relative humidity: from 0% RH to 95% RH) at 25° C. was recorded over time, and an equilibrium mass at each humidity was determined. Subsequently, based on the mass when dried (0% RH), the percent change in mass at each humidity and the hydration number were determined.

For data set [3], the system named is bladder extracted from rat. In words: Relaxing action on bladder extracted from rat (Magnus test, carbachol contraction). Conditions: concentration at which percent change in tension is −20%; carbachol 1 μM contraction; female Wistar rat bladder strip. The method, then: Female Jcl:Wistar rats (CLEA Japan, Inc., body weight at use: 170 to 200 g) were anesthetized by intraperitoneal administration of about 40 mg/kg of pentobarbital (Somnopentyl, Schering Plough Animal Health Corporation), and killed by bloodletting. The bladder was extracted by abdominal incision and immediately thereafter immersed in ice-cooled Krebs buffer (Krebs Ringer bicarbonate buffer (Sigma-Aldlich Co. LLC) supplemented with sodium hydrogen carbonate (final concentration: 15 mM) and calcium chloride (final concentration: 2.5 mM)) saturated with a mixed gas (95% O2, 5% CO2).
The bladder body extracted from each rat was cut into an oblong strip shape (about 10×3 mm), whereby a specimen was prepared on ice. Immediately thereafter, the specimen was suspended in a Magnus tube filled with Krebs buffer (37° C.) bubbled with the mixed gas while applying a tension load of 500 mg thereto. Incidentally, the specimen was prepared within 24 hours after extracting the tissue. […]
The tension (mg) in the extracted bladder was used as an evaluation item. The tension was read using analysis software WAVE THERMO 1000. […] The percent change in tension (%) is calculated according to the following formula. […]
The value at which the percent change in tension (%) was −20% was calculated as IC20 and used as an index of the relaxing action on the extracted bladder.

A short description of data set [4]: Evaluation of stability in human liver microsomes. The format is in vitro ADME. Conditions: 0.5 mg/mL human liver microsomes, NADPH, 37° C., 15 minutes, 5 μmol/L. The method, then:
A test compound (a 10 mmol/L DMSO solution, 5 μL) was diluted with a 50% aqueous acetonitrile solution (195 μL), whereby a 0.25 mmol/L solution was prepared.
To a reaction vessel preheated to 37° C., 0.5 mg/mL of human liver microsomes (XenoTech, LLC) and 245 μL of a 0.1 M phosphate buffer solution (pH 7.4) containing NADPH co-factor (BD Biosciences) were added, followed by preincubation for 5 minutes, and thereafter, the above-prepared test compound solution (5 μL) was added thereto to start a reaction (final concentration: 5 μmol/L). Immediately after the start, a 20 μL portion was collected and added to 180 μL of acetonitrile containing an internal standard substance (warfarin) to stop the reaction. A 20 μL portion of this solution was stirred with 180 μL of a 50% aqueous acetonitrile solution on a plate equipped with a deproteinization filter, followed by suction filtration, and the filtrate was used as a standard sample.
After the above-prepared reaction solution was incubated at 37° C. for 15 minutes, a 20 μL portion of the solution was added to 180 μL of cooled acetonitrile (containing warfarin serving as an internal standard substance) to stop the reaction. […]
A residual ratio (%) was calculated as follows. […]

For the next data set, the target named is T2, hERG channel (Homo sapiens, UniProt Q12809).
T2 construct: expressed in transfected cells; host or cells: HEK293 cells
In words: Evaluation of action on hERG IKr current (patch-clamp). The format is cell-based. Particulars: HEK293 cells overexpressing hERG, maximum tail current, 10 minutes after application, read-out: 50% hERG channel inhibitory activity. The method, then: By using HEK293 cells overexpressing a human ether-a-go-go-related gene (hERG), the maximum tail current of the hERG IKr current induced by redepolarization pulse subsequent to depolarization pulse was measured by a patch-clamp method. The percent change (suppression rate) after 10 minutes from application of a test substance with respect to the maximum tail current before the application of the test substance was calculated (see, Biophysical Journal, vol. 74, pp. 230-241 (1998)).
For orientation: Block of hERG is tested as a sign of cardiac risk.

T1 sequence (O43526 whole entry): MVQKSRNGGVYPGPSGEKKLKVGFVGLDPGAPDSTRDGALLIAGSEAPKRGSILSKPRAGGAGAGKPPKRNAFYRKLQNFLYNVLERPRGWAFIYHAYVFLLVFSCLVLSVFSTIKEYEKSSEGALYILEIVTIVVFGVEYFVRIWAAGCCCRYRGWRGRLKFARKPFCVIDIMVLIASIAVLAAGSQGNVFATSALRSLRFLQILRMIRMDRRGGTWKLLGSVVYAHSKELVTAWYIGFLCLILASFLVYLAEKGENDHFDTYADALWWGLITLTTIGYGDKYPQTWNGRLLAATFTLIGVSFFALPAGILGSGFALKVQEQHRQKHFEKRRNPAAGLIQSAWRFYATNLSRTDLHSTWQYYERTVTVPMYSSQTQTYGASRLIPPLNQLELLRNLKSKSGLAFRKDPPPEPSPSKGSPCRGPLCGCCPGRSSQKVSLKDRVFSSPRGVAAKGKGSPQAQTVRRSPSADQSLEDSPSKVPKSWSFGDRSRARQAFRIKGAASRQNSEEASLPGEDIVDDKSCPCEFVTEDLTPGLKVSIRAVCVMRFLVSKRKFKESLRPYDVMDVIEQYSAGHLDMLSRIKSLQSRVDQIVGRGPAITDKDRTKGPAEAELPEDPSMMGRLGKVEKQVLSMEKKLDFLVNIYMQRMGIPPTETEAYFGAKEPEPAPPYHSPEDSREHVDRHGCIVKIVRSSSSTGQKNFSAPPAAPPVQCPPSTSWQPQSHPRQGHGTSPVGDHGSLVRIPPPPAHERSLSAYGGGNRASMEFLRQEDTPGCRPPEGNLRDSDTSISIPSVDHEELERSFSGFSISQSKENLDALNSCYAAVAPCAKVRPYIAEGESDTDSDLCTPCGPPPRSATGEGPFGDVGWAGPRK
T1 sequence (O43525 whole entry): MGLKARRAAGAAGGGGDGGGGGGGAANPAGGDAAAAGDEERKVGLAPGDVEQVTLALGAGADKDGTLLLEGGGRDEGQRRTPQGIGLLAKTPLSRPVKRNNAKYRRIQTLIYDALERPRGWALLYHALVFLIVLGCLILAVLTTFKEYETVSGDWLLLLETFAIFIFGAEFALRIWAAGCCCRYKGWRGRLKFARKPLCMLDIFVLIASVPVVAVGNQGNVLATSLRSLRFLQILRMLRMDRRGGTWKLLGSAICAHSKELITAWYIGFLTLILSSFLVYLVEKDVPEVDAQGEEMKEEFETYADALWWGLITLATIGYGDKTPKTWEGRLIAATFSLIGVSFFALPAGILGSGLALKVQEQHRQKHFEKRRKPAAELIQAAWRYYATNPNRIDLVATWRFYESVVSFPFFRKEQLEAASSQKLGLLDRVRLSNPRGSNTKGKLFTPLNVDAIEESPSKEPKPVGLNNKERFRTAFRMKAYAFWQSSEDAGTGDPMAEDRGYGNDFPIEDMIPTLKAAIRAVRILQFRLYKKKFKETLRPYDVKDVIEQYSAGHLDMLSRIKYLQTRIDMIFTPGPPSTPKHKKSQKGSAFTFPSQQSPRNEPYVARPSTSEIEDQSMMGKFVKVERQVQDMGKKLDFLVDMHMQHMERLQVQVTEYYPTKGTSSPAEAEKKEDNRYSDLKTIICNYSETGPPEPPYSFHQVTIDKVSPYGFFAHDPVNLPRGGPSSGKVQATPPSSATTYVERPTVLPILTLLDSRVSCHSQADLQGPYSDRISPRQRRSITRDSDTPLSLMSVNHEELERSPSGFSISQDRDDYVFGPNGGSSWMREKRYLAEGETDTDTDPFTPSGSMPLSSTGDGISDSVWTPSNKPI
T2 sequence (Q12809 whole entry): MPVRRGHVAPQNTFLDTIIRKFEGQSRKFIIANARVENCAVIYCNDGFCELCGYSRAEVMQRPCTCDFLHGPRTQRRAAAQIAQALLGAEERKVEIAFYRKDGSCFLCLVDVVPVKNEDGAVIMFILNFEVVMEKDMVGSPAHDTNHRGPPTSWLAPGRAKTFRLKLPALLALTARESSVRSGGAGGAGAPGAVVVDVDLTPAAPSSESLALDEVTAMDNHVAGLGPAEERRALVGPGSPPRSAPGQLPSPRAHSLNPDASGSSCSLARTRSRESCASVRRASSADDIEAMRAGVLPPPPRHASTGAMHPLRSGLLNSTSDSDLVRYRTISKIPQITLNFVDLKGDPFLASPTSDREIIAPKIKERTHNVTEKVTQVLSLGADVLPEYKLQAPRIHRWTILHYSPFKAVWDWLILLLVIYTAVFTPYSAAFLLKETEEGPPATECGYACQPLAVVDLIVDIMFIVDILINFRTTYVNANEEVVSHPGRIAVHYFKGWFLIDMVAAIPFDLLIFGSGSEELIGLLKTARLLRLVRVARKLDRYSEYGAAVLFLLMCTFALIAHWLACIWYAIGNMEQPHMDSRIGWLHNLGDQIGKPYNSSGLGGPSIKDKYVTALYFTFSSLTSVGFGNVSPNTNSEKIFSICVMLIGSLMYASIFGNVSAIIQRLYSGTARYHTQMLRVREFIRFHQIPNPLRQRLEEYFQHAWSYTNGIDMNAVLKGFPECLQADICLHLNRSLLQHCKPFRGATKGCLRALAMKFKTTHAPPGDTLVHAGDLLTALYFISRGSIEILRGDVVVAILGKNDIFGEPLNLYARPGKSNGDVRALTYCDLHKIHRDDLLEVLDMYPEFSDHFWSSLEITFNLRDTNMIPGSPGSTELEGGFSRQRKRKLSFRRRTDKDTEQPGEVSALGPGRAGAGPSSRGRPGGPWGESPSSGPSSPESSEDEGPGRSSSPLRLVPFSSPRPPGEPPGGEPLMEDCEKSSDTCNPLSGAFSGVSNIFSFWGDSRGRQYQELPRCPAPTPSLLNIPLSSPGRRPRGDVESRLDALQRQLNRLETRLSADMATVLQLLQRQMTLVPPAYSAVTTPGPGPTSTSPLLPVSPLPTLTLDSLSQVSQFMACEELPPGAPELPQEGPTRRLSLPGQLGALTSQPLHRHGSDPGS

With `C[C@](O)(c1cc(Cl)c(NC(=O)NCc2ccc(Cl)cn2)c(Cl)c1)C(F)(F)F` [A crystal, A crystal of 1-[(5-chloro-2-pyridinyl)methyl]-3-{2,6-dichloro-4-[(2S)-1,1,1-trifluoro-2-hydroxy-2-propanyl]phenyl}urea], in data set [1], the “appearance after storage (visual inspection)” value is “a change in appearance was not observed” and the “powder X-ray diffraction spectrum after storage” value is “an increase in the number of peaks was not observed”.

As for `CC(O)(c1ccc(NC(=O)NCc2ccc(C(F)(F)F)cn2)cc1)C(F)(F)F` (centres unmarked) [Comparative Example 1, 1-[4-(1,1,1-trifluoro-2-hydroxy-2-propanyl)phenyl]-3-{[5-(trifluoromethyl)-2-pyridinyl]methyl}urea], the EC50 on Human KCNQ2/3 is more than 10000 nM.

Regarding `O=C(Cc1ccc(F)cc1)Nc1c(Cl)cc(Cl)cc1Br` [Comparative Example 2, N-(2-bromo-4,6-dichlorophenyl)-2-(4-fluorophenyl)acetamide, reference compound], the EC50 at Human KCNQ2/3 is 200 nM. Moreover, the solubility (usually how much of the substance goes into solution per volume) at 5 h in the data set “Solubility test” was less than 5 µM.

For the compound `C[C@](O)(c1cc(Cl)c(NC(=O)NCc2ccc(Cl)cn2)c(Cl)c1)C(F)(F)F.O` [H crystal, Crystal of hydrate (H crystal) of 1-[(5-chloro-2-pyridinyl)methyl]-3-{2,6-dichloro-4-[(2S)-1,1,1-trifluoro-2-hydroxy-2-propanyl]phenyl}urea], the “percent change in mass” value in data set [2] was determined as 4%.

For `C[C@](O)(c1cc(Cl)c(NC(=O)NCc2ccc(Cl)cn2)c(Cl)c1)C(F)(F)F` [compound I, 1-[(5-chloro-2-pyridinyl)methyl]-3-{2,6-dichloro-4-[(2S)-1,1,1-trifluoro-2-hydroxy-2-propanyl]phenyl}urea], the 20% effect level in data set [3] (IC20) was put at 500 nM. Besides, the EC50 at Human KCNQ2/3 stood at 600 nM. The concentration in solution in the data set “Solubility test” (solubility at 5 h) was 98 µM (≈ 43.4 µg/mL). Besides, the “residual ratio (stability against human liver microsomes)” value in data set [4] worked out at 87%. In addition, the IC50 on hERG channel was more than 10000 nM.
